Experimental findings from US10865216B2, “Tricyclic Gyrase inhibitors” (MERCK SHARP & DOHME CORP., priority 2012, dated 2020) are described below.

Common to all, as to assay type: cell-based
For one assay, the system named is S. aureus ATCC 13709. The experiment in a line: MIC, S. aureus ATCC 13709. The following applies: for MIC Sa: Table 18, Sa; for MIC: Staphylococcus aureus, ATCC13709, Table 16, new R4 substituents, read-out: SA MIC.
The test system of another assay is E. coli ATCC 25922. Briefly: MIC, E. coli ATCC 25922. The note with it: for MIC Ec: Table 18, Ec; for EC8 MIC: Table 11, L = CH2; for EC8 MIC / MIC: EC8 not defined; for MIC: Escherichia coli, ATCC25922, Table 16, new R4 substituents, read-out: EC8 MIC.
In a further assay the test system is S. pneumoniae ATCC 51916. The experiment in a line: MIC, S. pneumoniae ATCC 51916. The following applies: Table 17; comparative; Spn52 not defined.
The test system of the next assay is P. aeruginosa ATCC 15692. The experiment in a line: MIC, P. aeruginosa ATCC 15692. The note with it: Table 17; comparative, new species of R2.
The mark [1] stands for this setting: Table 11, compounds wherein L = CH2.

Converted amounts (≈) assume the structure as drawn.

In turn, `CNc1cc(F)cc2c1[nH]c1nc(Oc3cnc4cc[s+]([O-])c4c3)nc(N3CC4(CC[C@H]4N)C3)c12` (stereo partly drawn) [Compound 10.111] returned an MIC Sa in the assay on S. aureus ATCC 13709 of at most 0.5 µg/mL. The compound also showed an MIC Ec in the assay with E. coli ATCC 25922 of at most 0.5 µg/mL.

Compound `CNc1cc(F)c(F)c2c1[nH]c1nc(Oc3cnc(C(C)O)nc3)nc(N3CCC4(CCCC4N)C3)c12` (stereo not drawn) [Compound 10.112] returned an MIC Sa against S. aureus ATCC 13709 of at most 0.5 µg/mL. The compound further registered an MIC Ec in the assay on E. coli ATCC 25922 of at most 0.5 µg/mL.

For the compound `CNc1cc(F)cc2c1[nH]c1nc(Oc3cnc(C)nc3)nc(N3CCC(C(C)=O)C3)c12` (stereo not drawn) [Compound 10.113], the MIC Sa with S. aureus ATCC 13709 is at most 0.5 µg/mL. The MIC Ec in the assay with E. coli ATCC 25922 is at most 0.5 µg/mL.

Turning to `CNc1cc(F)cc2c1[nH]c1nc(Oc3cnc(C)nc3)nc(N3C[C@H]4C[C@@H]3C[C@H]4NCCO)c12` [Compound 10.114], the MIC Sa against S. aureus ATCC 13709 is at most 0.5 µg/mL. The compound also registered an MIC Ec against E. coli ATCC 25922 of at most 0.5 µg/mL.

Compound `CNc1cc(F)cc2c1[nH]c1nc(Oc3cnc(C)nc3)nc(N3C[C@H]4C[C@@H]3C[C@H]4N(CCO)CCO)c12` [Compound 10.115] registered an MIC Sa in the assay with S. aureus ATCC 13709 of at most 0.5 µg/mL. In the assay with E. coli ATCC 25922, the MIC Ec amounted to 1 µg/mL (≈ 1.91 µM).

In the assay with S. aureus ATCC 13709, `CNc1cc(F)cc2c1[nH]c1nc(Oc3cnc([C@@H](C)O)nc3)nc(N3CCOCC3)c12` [Compound 10.116] had an MIC Sa of at most 0.5 µg/mL. This compound also returned an MIC Ec in the assay with E. coli ATCC 25922 of at most 0.5 µg/mL.

Take `CNc1cc(F)cc2c1[nH]c1nc(Oc3cnc(C(C)OC)nc3)nc(N3CC4CC4C3)c12` (stereo not drawn) [Compound 10.117]: the MIC Sa in the assay on S. aureus ATCC 13709 was at most 0.5 µg/mL. Moreover, the MIC Ec with E. coli ATCC 25922 is at most 0.5 µg/mL.

On to `CNc1cc(F)cc2c1[nH]c1nc(Cc3cnn(C)c3)nc(N3C[C@H]4C[C@@H]3C[C@H]4N)c12` [drawing 1734], for which the SA MIC with S. aureus ATCC 13709 (setting [1]) was 1 µg/mL. The compound also registered an EC8 MIC with E. coli ATCC 25922 of 8 µg/mL.

Turning to `CNc1cc(F)cc2c1[nH]c1nc(Cc3cnc(C)nc3)nc(N3CC4C(N)C4C3)c12` (stereo not drawn) [drawing 1736], the SA MIC with S. aureus ATCC 13709 (setting [1]) was at most 0.5 µg/mL. Further, the EC8 MIC in the assay with E. coli ATCC 25922 was 0.25 µg/mL.

`CNc1cc(F)cc2c1[nH]c1nc(Cc3cnc(C)nc3)nc(N3CC4C(N)C4C3)c12` (stereo not drawn) [drawing 1737] showed an SA MIC in the assay with S. aureus ATCC 13709 (setting [1]) of at most 0.5 µg/mL. Also, the EC8 MIC with E. coli ATCC 25922 was found to be 0.25 µg/mL.

For orientation: MIC means the lowest concentration found to suppress growth. For the compound `CNc1cc(F)cc2c1[nH]c1nc(Oc3cnc(C)nc3)nc(N3CC(N)C(C(=O)NCC(C)O)C3)c12` (stereo not drawn) [drawing 1822], the MIC is 8 µg/mL (≈ 15.7 µM) in the assay on S. aureus ATCC 13709 and above 16 µg/mL in the assay with E. coli ATCC 25922.

On to `CNc1cc(F)cc2c1[nH]c1nc(Oc3cnc(C)nc3)nc(N3CC(N)C(C(=O)NCCN4CCOCC4)C3)c12` (stereo not drawn) [drawing 1823], for which the MIC is 16 µg/mL (≈ 28.3 µM) in the assay with S. aureus ATCC 13709 and above 16 µg/mL in the assay on E. coli ATCC 25922.

Consider `CNc1cc(F)cc2c1[nH]c1nc(Oc3cnc(C)nc3)nc(N3CC(N)C(C(F)(F)F)C3)c12` (stereo not drawn) [drawing 1824], for which the MIC with S. aureus ATCC 13709 is at most 0.5 µg/mL; in the assay on E. coli ATCC 25922, above 16 µg/mL.

As for `CNc1cc(F)cc2c1[nH]c1nc(Oc3cnc(C)nc3)nc(N3CC(N)C(C(=O)OC)C3)c12` (stereo not drawn) [drawing 1825], the minimum inhibitory concentration (MIC) in the assay with S. aureus ATCC 13709 is at most 0.5 µg/mL; in the assay on E. coli ATCC 25922, 1 µg/mL (≈ 2.14 µM).

`CNc1cc(F)cc2c1[nH]c1nc(Oc3cnc(C)nc3)nc(N3CC(N)C(C(=O)N4CCOCC4)C3)c12` (stereo not drawn) [drawing 1827]: the MIC with S. aureus ATCC 13709 turned out to be 1 µg/mL (≈ 1.92 µM); with E. coli ATCC 25922, 16 µg/mL (≈ 30.7 µM).

In turn, `CNc1cc(F)cc2c1[nH]c1nc(Oc3cnc4c(C)cnn4c3)nc(N3C[C@H]4C[C@@H]3C[C@H]4N)c12` [drawing 1831] displayed an SA MIC with S. aureus ATCC 13709 (Table 17, comparative, new species of R2) of at most 0.016 µg/mL. Also, the Spn52 MIC in the assay with S. pneumoniae ATCC 51916 is at most 0.001 µg/mL. Further, in the assay on P. aeruginosa ATCC 15692, the PA MIC is 0.5 µg/mL.
